According to ChEMBL document CHEMBL3860062, “Synthesis and biological evaluation of novel hydrogen sulfide releasing nicotinic acid derivatives” (Bioorg Med Chem, 2016):

What was measured:
[1] = tested on: HT-22; assay: Neuroprotective activity against glutamate-induced neuronal cell damage in mouse HT22 cells assessed as cell survival rate at 1 uM after 24 hrs by MTT assay (reference value: 12.49 to 43.44%); assay type: functional; conditions: HT-22, 24 h, read-out: Survival
[2] = tested on: HT-22; assay: Neuroprotective activity against glutamate-induced neuronal cell damage in mouse HT22 cells assessed as cell survival rate at 10 uM after 24 hrs by MTT assay (reference value: 12.49 to 43.44%); assay type: functional; conditions: HT-22, 24 h, read-out: Survival
[3] = tested on: HT-22; assay: Neuroprotective activity against glutamate-induced neuronal cell damage in mouse HT22 cells assessed as cell survival rate at 50 uM after 24 hrs by MTT assay (reference value: 12.49 to 43.44%); assay type: functional; conditions: HT-22, 24 h, read-out: Survival
[4] = tested on: HT-22; assay: Neuroprotective activity against glutamate-induced neuronal cell damage in mouse HT22 cells assessed as cell survival rate at 100 uM after 24 hrs by MTT assay (reference value: 12.49 to 43.44%); assay type: functional; conditions: HT-22, 24 h, read-out: Survival
[5] = Cytotoxicity against mouse HT22 cells assessed as cell survival rate at 100 uM after 24 hrs by MTT assay; assay type: toxicity, HT-22; conditions: read-out: Survival
[6] = tested on: HT-22; assay: Neuroprotective activity against glutamate-induced neuronal cell damage in mouse HT22 cells assessed as increase in cell viability at 1 to 100 uM after 24 hrs by MTT assay relative to glutamate; assay type: functional
[7] = tested on: Mus musculus; assay: Protection against focal cerebral ischemia in ICR mouse model of […] assessed as infarct volume of […] at 100 mg/kg, ip dosed 3 hrs post reperfusion measured 48 hrs post MCAO by TTC staining based assay (reference value: 62.75%); assay type: functional
[8] = tested on: Mus musculus; assay: Protection against focal cerebral ischemia in ICR mouse model of […] assessed as infarct volume of striatum at 100 mg/kg, ip dosed 3 hrs post reperfusion measured 48 hrs post MCAO by TTC staining based assay (reference value: 56.18%); assay type: functional
[9] = tested on: Mus musculus; assay: Protection against focal cerebral ischemia in ICR mouse model of […] assessed as infarct volume of hemisphere at 100 mg/kg, ip dosed 3 hrs post reperfusion measured 48 hrs post MCAO by TTC staining based assay (reference value: 44.98%); assay type: functional
[10] = tested on: Mus musculus; assay: Protection against focal cerebral ischemia in ICR mouse model of […] assessed as reduction in infarct volume administered ip 3 hrs post reperfusion measured 48 hrs post MCAO by TTC staining based assay; assay type: functional
[11] = tested on: Rattus norvegicus; assay: Protection against focal cerebral ischemia in Wistar rat model of […] assessed as reduction in infarction volume administered ip at 2 hrs post reperfusion measured 3 days post MCAO; assay type: functional

## O=C(OCCCCCOc1ccc(-c2cc(=S)ss2)cc1)c1cccnc1
[1]
  viability at 1 µM: 52.9%
[2]
  viability at 10 µM: 92.5%
[3]
  viability at 50 µM: 93.3%
[4]
  viability at 100 µM: 82.2%
[5]
  viability at 24 h, 100 µM: 100%

## O=C(OCCCCCCCCCOc1ccc(-c2cc(=S)ss2)cc1)c1cccnc1
[1]
  viability at 1 µM: 108%
[2]
  viability at 10 µM: 101%
[3]
  viability at 50 µM: 80.6%
[4]
  viability at 100 µM: 70.4%
[5]
  viability at 24 h, 100 µM: 70.4%

## O=C(CNC(=O)c1cccnc1)OCCCCOc1ccc(-c2cc(=S)ss2)cc1
[1]
  viability at 1 µM: 69.2%
[2]
  viability at 10 µM: 87.4%
[3]
  viability at 50 µM: 100%
[4]
  viability at 100 µM: 99%
[5]
  viability at 24 h, 100 µM: 100%

## O=C(OCCOc1ccc(-c2cc(=S)ss2)cc1)c1cccnc1
[1]
  viability at 1 µM: 57.9%
[2]
  viability at 10 µM: 80.8%
[3]
  viability at 50 µM: 91.5%
[4]
  viability at 100 µM: 102%
[5]
  viability at 24 h, 100 µM: 100%

## O=C(N[C@@H](Cc1ccccc1)C(=O)OCCCCOc1ccc(-c2cc(=S)ss2)cc1)c1cccnc1
[1]
  viability at 1 µM: 64.7%
[2]
  viability at 10 µM: 87.7%
[3]
  viability at 50 µM: 101%
[4]
  viability at 100 µM: 101%
[5]
  viability at 24 h, 100 µM: 100%

## O=C(Oc1ccc(-c2cc(=S)ss2)cc1)c1cccnc1
[1]
  viability at 1 µM: 43.3%
[2]
  viability at 10 µM: 64.2%
[3]
  viability at 50 µM: 82.4%
[4]
  viability at 100 µM: 78.3%
[5]
  viability at 24 h, 100 µM: 100%

## O=C(OCCCCOc1ccc(-c2cc(=S)ss2)cc1)c1cccnc1
[1]
  viability at 1 µM: 66.9%
[2]
  viability at 10 µM: 94.8%
[3]
  viability at 50 µM: 87.9%
[4]
  viability at 100 µM: 93.5%
[5]
  viability at 24 h, 100 µM: 52.9%

## O=C(OCCCCCCOc1ccc(-c2cc(=S)ss2)cc1)c1cccnc1
[1]
  viability at 1 µM: 82.6%
[2]
  viability at 10 µM: 83.2%
[3]
  viability at 50 µM: 78.2%
[4]
  viability at 100 µM: 71.3%
[6]
  fold change (FC): 6
[5]
  viability at 24 h, 100 µM: 100%
[7]
  Activity: 38.01%
[8]
  Activity: 23.04%
[9]
  Activity: 25.93%
[10]
  MED: 100 mg/kg

## O=C(OCCCCCCCCOc1ccc(-c2cc(=S)ss2)cc1)c1cccnc1
[1]
  viability at 1 µM: 82.5%
[2]
  viability at 10 µM: 78%
[3]
  viability at 50 µM: 76.3%
[4]
  viability at 100 µM: 82.3%
[5]
  viability at 24 h, 100 µM: 100%

## C[C@H](NC(=O)c1cccnc1)C(=O)OCCCCOc1ccc(-c2cc(=S)ss2)cc1
[1]
  viability at 1 µM: 68.7%
[2]
  viability at 10 µM: 75.5%
[3]
  viability at 50 µM: 77.9%
[4]
  viability at 100 µM: 71.1%
[5]
  viability at 24 h, 100 µM: 100%

## CC(C)[C@H](NC(=O)c1cccnc1)C(=O)OCCCCOc1ccc(-c2cc(=S)ss2)cc1
[1]
  viability at 1 µM: 73.3%
[2]
  viability at 10 µM: 72.4%
[3]
  viability at 50 µM: 70.8%
[4]
  viability at 100 µM: 68.1%
[5]
  viability at 24 h, 100 µM: 68%

## O=C(OCCCOc1ccc(-c2cc(=S)ss2)cc1)c1cccnc1
[1]
  viability at 1 µM: 33.7%
[2]
  viability at 10 µM: 87.2%
[3]
  viability at 50 µM: 93.4%
[4]
  viability at 100 µM: 89.8%
[5]
  viability at 24 h, 100 µM: 100%

## Oc1ccc(-c2cc(=S)ss2)cc1
[1]
  viability at 1 µM: 33.4%
[2]
  viability at 10 µM: 52.2%
[3]
  viability at 50 µM: 104%
[4]
  viability at 100 µM: 76.4%

## NC(=O)c1cccnc1 [NIACINAMIDE]
[11]
  MED: 500 mg/kg

## O=C(O)c1cccnc1 [NIACIN]
[1]
  viability at 1 µM: 56.2%
[2]
  viability at 10 µM: 58.9%
[3]
  viability at 50 µM: 63.8%
[4]
  viability at 100 µM: 75.3%
